Measured values from US8952024B2, “Herbicidal pyrimidone derivatives” (E I du Pont de Nemours and Company, priority 2009, dated 2015).

How the values were obtained:
Type in all cases: in vivo
[1] = tested on: barnyardgrass (Echinochloa crus-galli); assay: Test A pre-/postemergence plant response
How it was run: (§1)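 Seeds planted in loam soil/sand blend; test chemicals in non-phytotoxic solvent mixture with surfactant applied as directed soil spray preemergence and, concurrently, postemergence to plants 2–10 cm tall at one- to two-leaf stage. Greenhouse ~10 days; visual injury vs untreated controls, 0 (no effect) to 100 (complete control).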

corn (Zea mays) = assay: Test A pre-/postemergence plant response
How it was run: as §1

[2] = tested on: giant foxtail (Setaria faberii); assay: Test A pre-/postemergence plant response
How it was run: as §1

[3] = tested on: large crabgrass (Digitaria sanguinalis); assay: Test A pre-/postemergence plant response
How it was run: as §1

[4] = tested on: morningglory (Ipomoea spp.); assay: Test A pre-/postemergence plant response
How it was run: as §1

[5] = tested on: pigweed (Amaranthus retroflexus); assay: Test A pre-/postemergence plant response
How it was run: as §1

[6] = tested on: velvetleaf (Abutilon theophrasti); assay: Test A pre-/postemergence plant response
How it was run: as §1

[7] = tested on: wheat (Triticum aestivum); assay: Test A pre-/postemergence plant response
How it was run: as §1

[8] = tested on: cocklebur (Xanthium strumarium); assay: Test B pre-/postemergence plant response
Source text: (§2) Seeds of plant species selected from blackgrass (Alopecurus myosuroides), downy bromegrass (Bromus tectorum), green foxtail (Setaria viridis), Italian ryegrass (Lolium multiflorum), wheat (Triticum aestivum), wild oat (Avena fatua), deadnettle (henbit deadnettle, Lamium amplexicaule), galium (catchweed bedstraw, Galium aparine), bermudagrass (Cynodon dactylon), Surinam grass (Brachiaria decumbens), cocklebur (Xanthium strumarium), corn (Zea mays), large crabgrass (Digitaria sanguinalis), woolly cupgrass (Eriochloa villosa), giant foxtail (Setaria faberii), goosegrass (Eleusine indica), johnsongrass (Sorghum halepense), kochia (Kochia scoparia), lambsquarters (Chenopodium album), morningglory (Ipomoea coccinea), nightshade (eastern black nightshade, Solanum ptycanthum), yellow nutsedge (Cyperus esculentus), pigweed (Amaranthus retroflexus), ragweed (common ragweed, Ambrosia elatior), Russian thistle (Salsola kali), soybean (Glycine max), sunflower (common oilseed sunflower, Helianthus annuus) and velvetleaf (Abutilon theophrasti) were planted into a blend of loam soil and sand and treated preemergence with test compounds formulated in a non-phytotoxic solvent mixture which included a surfactant.
(§3) At the same time, plants selected from these crop and weed species and also winter barley (Hordeum vulgare), canarygrass (Phalaris minor), chickweed (Stellaria media) and windgrass (Apera spica-venti) were planted in pots containing Redi-Earth® planting medium (Scotts Company, 14111 Scottslawn Road, Marysville, Ohio 43041) comprising spaghnum peat moss, vermiculite, wetting agent and starter nutrients and treated with postemergence applications of some of the test chemicals formulated in the same manner. Plants ranged in height from 2 to 18 cm (1- to 4-leaf stage) for postemergence treatments.
(§4) Treated plants and controls were maintained in a greenhouse for 13 to 15 days, after which time all treated plants were visually evaluated and compared to controls. Plant response ratings, summarized in Table B, are based on a scale of 0 to 100 where 0 is no effect and 100 is complete control. A dash (-) response means no test result.

[9] = tested on: morningglory (Ipomoea coccinea); assay: Test B pre-/postemergence plant response
Source text: as §2, §3, §4

soybean (Glycine max) = assay: Test B pre-/postemergence plant response
Source text: as §2, §3, §4

[10] = tested on: wheat (Triticum aestivum); assay: Test B pre-/postemergence plant response
Source text: as §2, §3, §4

[11] = Postemergence, 125 g ai/ha, visual injury, 0 to 100 scale (0 no effect, 100 complete control), approx. ten days
[12] = Postemergence, 500 g ai/ha, 0 to 100 scale, 0 = no effect, 100 = complete control, approx. ten days
[13] = Preemergence, 125 g ai/ha, 0 to 100 scale, 0 = no effect, 100 = complete control
[14] = Preemergence, 500 g ai/ha, visual injury, 0 to 100 scale (0 no effect, 100 complete control), approx. ten days
[15] = 250 g ai/ha, Preemergence, 0 to 100 scale
[16] = Postemergence, 31 g ai/ha, scale 0 to 100 (0 no effect, 100 complete control)
[17] = Postemergence, 62 g ai/ha, scale 0 (no effect) to 100 (complete control), 13 to 15 days
[18] = Postemergence, 125 g ai/ha, visual rating after 13 to 15 days, scale 0 (no effect) to 100 (complete control)
[19] = Postemergence, 250 g ai/ha, scale 0 to 100
[20] = Preemergence, 31 g ai/ha, scale 0 to 100 (0 no effect, 100 complete control)
[21] = Preemergence, 62 g ai/ha, scale 0 to 100, 0 no effect, 100 complete control
[22] = Preemergence, 125 g ai/ha, 0 to 100 scale

## 5-[(2-hydroxy-6-oxo-1-cyclohexen-1-yl)carbonyl]-3-(2-methoxyethyl)-2-(3-thienyl)-4(3H)-pyrimidinone [Compound 97]
[1]; [11]
  Barnyardgrass plant response rating: 90
[1]; [12]
  Plant response rating, Barnyardgrass: 90
[1]; [13]
  Plant response rating, Barnyardgrass: 30
[1]; [14]
  Plant response rating, Barnyardgrass: 90
Corn (Zea mays); [11]
  Corn plant response rating: 30
Corn (Zea mays); [12]
  Plant response rating, Corn: 90
Corn (Zea mays); [13]
  Plant response rating, Corn: 0
Corn (Zea mays); [14]
  Plant response rating, Corn: 0
[2]; [11]
  Foxtail, Giant plant response rating: 90
[2]; [12]
  Plant response rating, Foxtail, Giant: 100
[2]; [13]
  Plant response rating, Foxtail, Giant: 70
[2]; [14]
  Plant response rating, Foxtail, Giant: 100
[3]; [11]
  Crabgrass, Large plant response rating: 90
[3]; [12]
  Plant response rating, Crabgrass, Large: 100
[3]; [13]
  Plant response rating, Crabgrass, Large: 90
[3]; [14]
  Plant response rating, Crabgrass, Large: 100
[4]; [11]
  Morningglory plant response rating: 100
[4]; [12]
  Plant response rating, Morningglory: 100
[4]; [13]
  Plant response rating, Morningglory: 10
[4]; [14]
  Plant response rating, Morningglory: 90
[5]; [11]
  Pigweed plant response rating: 100
[5]; [12]
  Plant response rating, Pigweed: 100
[5]; [13]
  Plant response rating, Pigweed: 100
[5]; [14]
  Plant response rating, Pigweed: 100
[6]; [11]
  Velvetleaf plant response rating: 100
[6]; [12]
  Plant response rating, Velvetleaf: 100
[6]; [13]
  Plant response rating, Velvetleaf: 90
[6]; [14]
  Plant response rating, Velvetleaf: 100
[7]; [11]
  Wheat plant response rating: 40
[7]; [12]
  Plant response rating, Wheat: 60
[7]; [13]
  Plant response rating, Wheat: 0
[7]; [14]
  Plant response rating, Wheat: 50
[8]; [15]
  Plant response rating, Cocklebur: 98
[8]; [16]
  Plant response rating, Cocklebur: 70
[8]; [17]
  Plant response rating, Cocklebur: 90
[8]; [18]
  Plant response rating, Cocklebur: 95
[8]; [19]
  Cocklebur plant response rating: 98
[8]; [20]
  Plant response rating, Cocklebur: 0
[8]; [21]
  Plant response rating, Cocklebur: 15
[8]; [22]
  Cocklebur plant response rating: 65
[9]; [15]
  Plant response rating, Morningglory: 40
[9]; [16]
  Plant response rating, Morningglory: 0
[9]; [17]
  Plant response rating, Morningglory: 45
[9]; [18]
  Plant response rating, Morningglory: 45
[9]; [19]
  Morningglory plant response rating: 55
[9]; [20]
  Plant response rating, Morningglory: 0
[9]; [21]
  Plant response rating, Morningglory: 0
[9]; [22]
  Morningglory plant response rating: 0
Soybean (Glycine max); [15]
  Plant response rating, Soybean: 75
Soybean (Glycine max); [16]
  Plant response rating, Soybean: 95
Soybean (Glycine max); [17]
  Plant response rating, Soybean: 95
Soybean (Glycine max); [18]
  Plant response rating, Soybean: 95
Soybean (Glycine max); [19]
  Soybean plant response rating: 98
Soybean (Glycine max); [20]
  Plant response rating, Soybean: 10
Soybean (Glycine max); [21]
  Plant response rating, Soybean: 60
Soybean (Glycine max); [22]
  Soybean plant response rating: 65
[10]; [15]
  Plant response rating, Wheat: 5
[10]; [16]
  Plant response rating, Wheat: 0
[10]; [17]
  Plant response rating, Wheat: 0
[10]; [18]
  Plant response rating, Wheat: 0
[10]; [19]
  Wheat plant response rating: 5
[10]; [20]
  Plant response rating, Wheat: 0
[10]; [22]
  Wheat plant response rating: 0
